# Values of other authors as cited in US8524769B2, “Process for producing a fraction enriched up to 100% of 3-O-acetyl-11-keto-beta-boswellic acid from an extract containing a mixture of boswellic acids” (Laila Impex, priority 2002, dated 2013).
# Test system: 5-lipoxygenase (5-LO)
# Conditions: compared among all six boswellic acids; Sailer et al., British J. Pharmacology 117, 615-618, 1996
# 5-lipoxygenase (5-LO), sequence (P09917 whole entry, species assumed): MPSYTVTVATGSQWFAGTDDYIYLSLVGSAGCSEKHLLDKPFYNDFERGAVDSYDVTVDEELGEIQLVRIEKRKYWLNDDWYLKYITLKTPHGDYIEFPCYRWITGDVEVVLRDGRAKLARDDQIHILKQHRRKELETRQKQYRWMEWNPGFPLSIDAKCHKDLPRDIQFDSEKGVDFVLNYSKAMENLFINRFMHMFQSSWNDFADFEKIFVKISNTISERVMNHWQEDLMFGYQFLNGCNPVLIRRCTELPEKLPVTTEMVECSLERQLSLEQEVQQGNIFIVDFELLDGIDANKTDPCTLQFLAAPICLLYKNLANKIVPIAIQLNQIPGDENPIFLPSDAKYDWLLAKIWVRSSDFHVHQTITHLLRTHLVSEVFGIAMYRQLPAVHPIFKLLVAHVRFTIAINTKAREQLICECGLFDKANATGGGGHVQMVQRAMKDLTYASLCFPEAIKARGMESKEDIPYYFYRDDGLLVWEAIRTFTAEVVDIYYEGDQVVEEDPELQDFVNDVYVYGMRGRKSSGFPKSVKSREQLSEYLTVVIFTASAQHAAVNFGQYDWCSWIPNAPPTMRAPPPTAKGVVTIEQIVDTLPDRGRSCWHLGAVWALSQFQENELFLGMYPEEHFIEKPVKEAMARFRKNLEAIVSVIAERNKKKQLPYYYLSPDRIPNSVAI
substance,measurement,value
3-O-acetyl-11-keto-β-boswellic acid [AKBA],inhibitory activity on 5-lipoxygenase,most pronounced inhibitory activity
